In PMC8482815, “Targeting Host Glycolysis as a Strategy for Antimalarial Development” (Frontiers in Cellular and Infection Microbiology, 2021):
“And” between values parts separate entries of the source, which are not always exact repeats. Identical values can stand only once.

Test system: human erythrocytes
Test: Untargeted metabolomics and 13C-glucose tracing of enolase inhibitor treated erythrocytes
Format: cell-based
Details: 1h
Method: Freshly collected erythrocytes were washed, resuspended to 10% hematocrit in buffer [25mM HEPES (pH 7.4), 120mM NaCl, 5.4mM KCl, 1.8mM CaCl2, and 1mM NaH2PO4], incubated for 1 hour at 37°C, then centrifuged at 2000xg for 5 minutes at 4°C, resuspended in fresh wash buffer to 30-40% hematocrit, and split into 210µL aliquots of packed erythrocytes. […] All samples were incubated at 37°C shaking at 500 RPM. Triplicate samples of supernatants and packed erythrocytes were collected at 0, 0.5, 1, and 6-hour intervals and snap-frozen in liquid N2.
RBC and media samples were extracted at 1:10 and 1:20 dilutions, respectively, in 5:3:2 MeOH : MeCN:H2O v/v/v, and supernatants analyzed on a Thermo Vanquish UHPLC coupled to a Thermo Q Exactive mass spectrometer, as extensively described ([Nemkov et al., 2015]; [Nemkov et al., 2017]). The extraction buffer was supplemented with 40uM 3-^13C lactate to allow absolute quantification of lactate isotopologues, including lactate generated via glycolysis ([1,2,3-^13C3] enriched) vs. the pentose phosphate pathway ([2,3-^13C2] enriched), as described ([Reisz et al., 2016]). Metabolite assignments, peak area integration and isotopologues distributions were determined using Maven (Princeton University) ([Nemkov et al., 2015]; [Nemkov et al., 2017]).
Data were auto-scaled and normalized to zero-hour time points. Metabolites were removed from the dataset if greater than 50% of the samples contained missing values or the relative standard deviation among replicates exceeded 25%. Additionally, data was filtered using the interquartile range to reduce near-constant values from the experiment by 5%.
A principal component analysis of preprocessed data was plotted with the 95% confidence interval minimum volume enclosing ellipsoid for each respective group (MetaboAnalyst, cluster, plotly). A two-way repeated measures analysis of variance (ANOVA) was performed with multiple comparisons corrected for using a false discovery rate p-value cutoff of 0.05. Metabolite-Pathway analysis was performed using the R package of MetaboAnalyst, as previously described ([Xia and Wishart, 2010]). Metabolite-Protein nodal analysis was performed using omicsnet.ca and as previously described ([Zhou and Xia, 2018]).

[1] = treated erythrocytes, one value per replicate sample, polarity +
[2] = treated erythrocytes, one value per replicate sample, polarity -
[3] = treated erythrocytes, replicate samples

Structure (SMILES): CC(C)(C)C(=O)OCOP(=O)(OCOC(=O)C(C)(C)C)C1CC(O)N(O)C1=O (stereo not shown) [POMSF]
- AMP level (metabolomics signal) (replicate samples): 2.14E+06 and 1.66E+06 and 1.77E+06
- ATP level (metabolomics signal) (replicate samples): 1.57E+04 and 2.82E+04 and 2.26E+04
- Adenine level (metabolomics signal) (replicate samples): 1.34E+05 and 1.22E+05 and 1.52E+05
- Cytosine level (metabolomics signal) (replicate samples): 3.68E+05 and 3.33E+05 and 3.22E+05
- L-alanine level (metabolomics signal) (replicate samples): 8.35E+06 and 9.14E+06 and 1.12E+07
- L-arginine level (metabolomics signal) (replicate samples): 1.02E+07 and 1.01E+07 and 0.00E+00
- L-asparagine level (metabolomics signal) (replicate samples): 7.51E+06 and 6.72E+06 and 7.84E+06
- L-aspartate level (metabolomics signal) (replicate samples): 3.12E+07 and 3.26E+07 and 2.90E+07
- L-cysteine level (metabolomics signal) (replicate samples): 1.80E+06 and 1.83E+06 and 5.70E+05
- L-glutamate level (metabolomics signal) (replicate samples): 3.18E+07 and 2.68E+07 and 2.49E+07
- L-glutamine level (metabolomics signal) (replicate samples): 8.50E+07 and 9.01E+07 and 8.26E+07
- L-histidine level (metabolomics signal) (replicate samples): 1.59E+06 and 1.54E+06 and 1.57E+06
- L-isoleucine level (metabolomics signal) (replicate samples): 1.27E+07 and 1.24E+07 and 1.09E+07
- L-leucine level (metabolomics signal) (replicate samples): 2.27E+08 and 2.54E+08 and 2.31E+08
- L-lysine level (metabolomics signal) (replicate samples): 2.40E+06 and 2.03E+06 and 1.89E+06
- L-methionine level (metabolomics signal) (replicate samples): 2.24E+07 and 2.35E+07 and 2.22E+07
- L-phenylalanine level (metabolomics signal) (replicate samples): 1.58E+07 and 1.49E+07 and 1.43E+07
- L-proline level (metabolomics signal) (replicate samples): 6.58E+07 and 5.90E+07 and 5.39E+07
- L-serine level (metabolomics signal) (replicate samples): 4.64E+06 and 5.26E+06 and 6.00E+06
- L-threonine level (metabolomics signal) (replicate samples): 8.46E+06 and 8.55E+06 and 8.85E+06
- L-tryptophan level (metabolomics signal) (replicate samples): 5.00E+06 and 4.41E+06 and 4.35E+06
- L-tyrosine level (metabolomics signal) (replicate samples): 2.58E+07 and 2.87E+07 and 2.75E+07
- L-valine level (metabolomics signal) (replicate samples): 1.53E+08 and 1.47E+08 and 1.51E+08
- dCMP level (metabolomics signal) (replicate samples): 1.51E+04 and 1.42E+04 and 1.15E+04
- dTMP level (metabolomics signal) (replicate samples): 1.28E+06 and 1.27E+06 and 1.22E+06
- glycine level (metabolomics signal) (replicate samples): 1.77E+06 and 2.28E+06 and 2.53E+06
- N-Acyl-D-aspartate (C06380) metabolite signal [1]: 1.57E+05 and 1.16E+05 and 1.31E+05
- Poly-gamma-D-glutamate (C05723) metabolite signal [1]: 5.78E+07 and 6.19E+07 and 5.54E+07
- D-Ribitol 5-phosphate (C01068) metabolite signal [2]: 2.08E+04 and 2.67E+04 and 2.32E+04
- D-glucono-1,5-lactone (C00198) metabolite signal [2]: 3.06E+05 and 3.20E+05 and 3.38E+05
- L-Noradrenaline (C00547) metabolite signal [2]: 3.16E+04 and 3.80E+04 and 3.20E+04
- Oxalosuccinate (C05379) metabolite signal [2]: 9.37E+04 and 1.04E+05 and 9.63E+04
- Pyridoxamine (C00534) metabolite signal [2]: 1.68E+04 and 1.54E+04 and 2.58E+04
- Thioredoxin disulfide (C00343) metabolite signal [2]: 5.72E+04 and 1.02E+05 and 5.14E+04
- 1-4-beta-D-Xylan (metabolite signal) [3]: 1.97E+05 and 1.92E+05 and 2.09E+05
- 2-Hydroxyglutarate/Citramalate (C02630) metabolite signal [3]: 7.86E+04 and 5.69E+04 and 5.61E+04
- 5-6-Dihydrothymine (C00906) metabolite signal [3]: 2.50E+05 and 2.77E+05 and 2.96E+05
- 5-10-Methenyltetrahydrofolate (metabolite signal) [3]: 1.06E+05 (2×) and 7.96E+04
- 5-Hydroxyisourate (C11821) metabolite signal [3]: 1.50E+06 and 2.10E+06 and 4.21E+06
- 5-L-Glutamyl-taurine (metabolite signal) [3]: 1.11E+05 and 1.18E+05 and 1.16E+05
- 5-Oxoproline (metabolite signal) [3]: 8.27E+05 and 7.57E+05 and 7.14E+05
- (S)(+)-Allantoin (C02350) metabolite signal [3]: 1.72E+04 and 1.57E+04 and 2.62E+04
- Allantoate (C00499) metabolite signal [3]: 6.65E+05 and 5.04E+05 and 3.15E+05
- Ascorbate (metabolite signal) [3]: 1.17E+05 and 8.53E+04 and 8.00E+04
- CMP-N-acetylneuraminate (metabolite signal) [3]: 1.67E+04 and 8.29E+03 and 7.76E+03
- Carnosine (metabolite signal) [3]: 1.06E+05 and 9.45E+04 and 2.03E+05
- Citrate (C00158) metabolite signal [3]: 4.35E+04 and 3.82E+04 and 3.29E+04
- Creatine (metabolite signal) [3]: 2.46E+08 and 2.26E+08 and 2.23E+08
- Creatinine (metabolite signal) [3]: 2.77E+06 and 2.62E+06 and 2.87E+06
- Cys-Gly (metabolite signal) [3]: 2.32E+06 and 2.14E+06 and 1.32E+06
- D-Glucosamine (metabolite signal) [3]: 2.29E+05 and 1.27E+05 and 2.04E+05
- D-Glucose (C00031) metabolite signal [3]: 5.29E+06 and 5.04E+06 and 5.14E+06
- D-Ribose (C00121) metabolite signal [3]: 1.64E+05 and 1.19E+05 and 1.18E+05
- Dehydroascorbate (metabolite signal) [3]: 6.32E+04 and 5.87E+04 and 4.12E+04
- Dihydrofolate (metabolite signal) [3]: 3.00E+06 and 2.07E+06 and 9.85E+05
- Dimethylglycine (metabolite signal) [3]: 8.86E+05 and 1.02E+06 and 8.96E+05
- Diphosphate (C00013) metabolite signal [3]: 2.94E+04 and 3.31E+04 and 1.77E+04
- Fumarate (C00122) metabolite signal [3]: 1.04E+05 and 8.86E+04 and 8.87E+04
- Glutathione (C00051) metabolite signal [3]: 1.54E+08 and 1.50E+08 and 9.17E+07
- Glutathione disulfide (metabolite signal) [3]: 1.48E+05 and 9.64E+04 and 9.50E+04
- Hypoxanthine (C00262) metabolite signal [3]: 3.21E+04 and 1.66E+04 and 8.15E+03
- IMP (C00130) metabolite signal [3]: 1.58E+05 and 9.80E+04 and 1.96E+05
- Inosine (C00294) metabolite signal [3]: 6.71E+04 and 6.29E+04 and 6.63E+04
- L-Citrulline (metabolite signal) [3]: 2.74E+06 and 3.23E+06 and 3.99E+06
- L-Homoserine (metabolite signal) [3]: 2.34E+05 and 2.10E+05 and 2.35E+05
- Lactate (C01432) metabolite signal [3]: 9.22E+06 and 8.76E+06 and 8.98E+06
- Malate (C00149) metabolite signal [3]: 1.55E+05 and 1.07E+05 and 9.91E+04
- Mannitol (C00392) metabolite signal [3]: 1.01E+05 and 9.53E+04 and 1.38E+05
- N-Acetylneuraminate (metabolite signal) [3]: 2.25E+04 and 1.68E+04 and 2.38E+04
- N-Glycoloyl-neuraminate (metabolite signal) [3]: 1.23E+05 and 1.51E+05 and 1.32E+05
- NAD+ (C00003) metabolite signal [3]: 8.73E+04 and 4.11E+04 and 4.40E+04
- Nicotinamide (C00153) metabolite signal [3]: 3.46E+07 and 3.78E+07 and 4.86E+07
- Ornithine (metabolite signal) [3]: 1.57E+06 (2×) and 1.55E+06
- Oxaloacetate (C00036) metabolite signal [3]: 5.69E+04 and 5.42E+04 and 4.38E+04
- Phosphoserine (metabolite signal) [3]: 0.00E+00 (2×) and 3.46E+04
- Putrescine (metabolite signal) [3]: 4.96E+04 and 2.87E+04 and 4.23E+04
- Pyridoxal (C00250) metabolite signal [3]: 5.84E+04 and 5.75E+04 and 6.92E+04
- Pyruvate (C00022) metabolite signal [3]: 9.01E+05 and 7.95E+05 and 8.15E+05
- S-Glutathionyl-L-cysteine (metabolite signal) [3]: 1.18E+05 and 8.54E+04 and 7.69E+04
- Sedoheptulose 1-phosphate (C06222) metabolite signal [3]: 1.59E+04 and 1.93E+04 and 8.80E+03
- Spermidine (metabolite signal) [3]: 8.37E+06 and 7.92E+06 and 6.82E+06
- Spermine (metabolite signal) [3]: 1.09E+07 and 1.10E+07 and 8.00E+06
- Succinate (C00042) metabolite signal [3]: 7.45E+04 and 8.48E+04 and 5.74E+04
- Thymidine (C00214) metabolite signal [3]: 1.11E+04 and 1.24E+04 and 8.29E+03
- UDP (C00015) metabolite signal [3]: 2.25E+05 and 1.89E+05 and 1.40E+05
- UDP-N-acetyl-D-glucosamine (metabolite signal) [3]: 1.24E+04 and 7.59E+03 and 4.65E+03
- UDP-glucose (C00029) metabolite signal [3]: 2.38E+04 and 1.72E+04 and 9.18E+03
- Urate (C00366) metabolite signal [3]: 3.27E+04 and 2.94E+04 and 2.46E+04
- Xanthine (C00385) metabolite signal [3]: 2.31E+05 and 1.91E+05 and 1.90E+05
- alpha-D-Glucosamine 1-phosphate (metabolite signal) [3]: 4.45E+05 and 6.15E+05 and 8.58E+05
- alpha-D-Ribose 1-phosphate (C00620) metabolite signal [3]: 6.39E+04 and 6.67E+04 and 4.32E+04
- gamma-Glutamyl-gamma-aminobutyrate (metabolite signal) [3]: 7.63E+04 and 8.93E+04 and 1.06E+05
- gamma-L-Glutamyl-D-alanine (metabolite signal) [3]: 4.26E+04 and 3.07E+04 and 3.12E+04
- gamma-L-Glutamyl-L-cysteine (metabolite signal) [3]: 3.96E+04 and 5.76E+04 and 1.90E+04
